Source: US12025596B2, “6-oxo-pipecolic acid quantitation by mass spectrometry” (THE REGENTS OF THE UNIVERSITY OF COLORADO, priority 2018, dated 2024)
Where “and” joins values, the source holds several entries; their conditions need not be identical. Identical values can stand only once. Entries after “also recorded” stand apart in the source; their conditions may differ.

What was measured:
[1] = 4-month biomarker stability study in urine samples; type: physicochemical, human; conditions: PDE urine, −70° C.
[2] = Blood spot stability at room temperature; type: physicochemical, human; conditions: blood spots (Whatman 903) stored at room temperature
Source text: (§1) As a primary aim of this research was to evaluate biomarkers suitable for newborn screening, we analyzed blood spots (Whatman 903 Lot W-041) from two subjects and controls. […] A freeze-thaw study and a 4-month stability study was done in urine samples from subjects 1 and 2 (Table 4).

[3] = Cytosolic, S9, mitochondrial and plasma metabolism of lysine metabolites; type: in vitro ADME, human
Protocol: Cytosolic and mitochondrial metabolism of lysine metabolites: Human liver cytosol 100 μL (10 mg/mL) or S9 fraction 100 μL (20 mg/mL) and 100 μL NAD+ (1.2 mM final) in 400 μL PBS pH 7.4 were preincubated at 37° C. for 5 min, followed by addition of 100 μL Δ1-P6C (100 μM); 100 μL samples were taken at 0.5, 5, 20 and 50 min, added to 300 μL 1:1 MeOH:ACN and analysed by LC-MS/MS. To probe potential phase II metabolism, 100 μL human liver microsomes (20 mg protein/mL) were similarly incubated with 4.0 mM UDPGA.
Human liver mitochondria were freshly prepared by homogenization of a human liver sample with a Teflon pestle in 5% weight to volume Zheng buffer (Zheng et al. 1990, Biochim Biophys Acta 1019:1-10), and after centrifugation at 5600 g for 5 min, the supernatant was transferred to a centrifuge tube; this procedure was repeated on the resuspended pellet a second time. Both supernatants were combined, centrifuged at 37,500 g for 5 min, the resulting pellet resuspended in Zheng buffer, homogenized and similarly pelleted again, and resuspended in 300 μL Zheng buffer to provide a mitochondrial preparation, with protein concentration determined using the Bio-Rad Protein Assay. To access the mitochondrial matrix, the homogenate was subjected to 3 freeze-thaw cycles, followed by 2×7 bursts of sonication on ice using a Branson 450 digital sonifier with a 2-inch cup horn at 30% amplitude. Of this mitochondrial preparation 100 μL was similarly incubated with Δ1-P6C and analyzed as above.
Albeit small, the formation of 6-oxo-PIP raises the possibility of a second pathway. […] Thus, this alternative mechanism to AAA is not a major pathway.

[4] = Four freeze-thaw cycle stability in urine; type: physicochemical, human; conditions: urine from PDE patients
Protocol: as §1
(§2) To quantify 6-Oxo-PIP and Δ^1-P6C/P6CH, we prepared standard curves ranging from 0.5-500 μM from control urine (FIGS. 5 and 6). In a freeze-thaw study (6-Oxo-PIP, FIG. 6; and P6C/P6CH, FIG. 7) and a 4-month stability study (FIG. 8 and FIG. 9B), fresh urine samples (400 μL) were aliquoted into 1.5 mL Eppendorf tubes and stored either at room temperature (22±2° C.), regular freezer (−13±3° C.) or deep freezer (−77±3° C.) and sampled over a four-month period. First, both biomarkers Δ^1-P6C/P6CH and 6-Oxo-PIP were stable via four freeze-thaw cycles (6-Oxo-PIP FIG. 6; and Δ^1-P6C/P6CH FIG. 7). The initial 6-Oxo-PIP concentrations observed with patient one and patient two were 298±23 and 440±4 μM, respectively. […] The original concentrations of Δ^1-P6C/P6CH for patient one and two were 16.1±1.9 μM and 27.1±2.0 μM, respectively, an order of magnitude less than 6-oxo-PIP. […] Even after 126 days storage, roughly half of the Δ^1-P6C/P6CH from the original sample (day 1) remained.

[5] = 4-month biomarker stability study in urine samples; type: physicochemical, human; conditions: for concentration: PDE urine; for decrease at 126 days: room temperature
Source text: Liquid chromatography tandem mass spectrometry experiments: Lysine metabolites were first analyzed based on previously published liquid chromatography tandem mass spectrometry (LC-MS/MS) methods (Struys, Jakobs 2007, Molecular Genetics and Metabolism 91:405; Yuzyuk et al. 2016, J Chromatogr B Analyt Technol Biomed Life Sci, 1017-1018:145-52). As the goal of this study was to replicate current newborn screening modalities, we focused on a non-derivatized MS/MS analytical method (Nagy et al. 2003, Rapid Commun Mass Spectrom 17:983-90). Samples were analyzed via electrospray ionization in positive ion mode (ESI+) using an Applied Biosystems Sciex 4000 (Applied Biosystems) equipped with a Shimadzu HPLC (Shimadzu Scientific Instruments) and a Leap auto-sampler (LEAP Technologies). Methanol (MeOH):acetonitrile (ACN) 200 μL 1:1 mixture was added to 100 μL of plasma, blood, urine, CSF or standard materials. Plasma and blood samples were centrifuged at 10,000 rpm and the supernatants used. Urine and CSF samples required no additional processing. […] Samples were analyzed using the following conditions: i) ion-spray voltage of 5500 V; ii) temperature, 450° C.; iii) collision using nitrogen gas with curtain gas (CUR) set at 10 and collisionally activated dissociation (CAD) set at 12; iv) ion source gas one (GS1) and two (GS2) were set at 30; v) entrance potential was set at 10 V; vi) quadruple one (Q1) and (Q3) were set on unit resolution; vii) dwell time was set at 200 msec.
Biomarker stability studies: In a 4-month stability study, fresh urine samples (400 μL) from two subjects were aliquoted into 1.5 mL Eppendorf tubes and stored either at room temperature (22±2° C.), freezer (−13±3° C.) or deep freezer (−77±3° C.) and sampled over four-months.
as §1, §2

## O=C1CCC[C@@H](C(=O)O)N1 [6-oxo-PIP, (S)-6-oxopiperidine-2-carboxylic acid]
[1]; Subject 2, day 0
  concentration: 387.6 µM
[1]; Subject 2, day 60
  concentration: 340.7 µM
[2]
  signal in blood spots: noted in the initial blood spot
[3]; incubation with human S9
  conversion to AAA (hydrolytic ring opening): none of these experiments showed a conversion
[3]; incubation with human cytosol
  conversion to AAA (hydrolytic ring opening): none of these experiments showed a conversion
[3]; incubation with human plasma (e.g. esterase activity)
  conversion to AAA (hydrolytic ring opening): none of these experiments showed a conversion
[4]
  stability via four freeze-thaw cycles: stable
[5]; Room Temperature, Subject 1, day 0
  concentration: 298 ± 23 µM and 297.0 µM
[5]; Room Temperature, Subject 1, day 0, listed as 6-Oxo-PIP
  concentration: 298 ± 23 µM
[5]; Room Temperature, Subject 1, day 1
  concentration: 294.8 µM
[5]; Room Temperature, Subject 1, day 2
  concentration: 283.5 µM
[5]; Room Temperature, Subject 1, day 3
  concentration: 30.1 µM
[5]; Room Temperature, Subject 1, day 5
  concentration: 257.6 µM
[5]; Room Temperature, Subject 1, day 7
  concentration: 252.1 µM
[5]; Room Temperature, Subject 1, day 10
  concentration: 234.7 µM
[5]; Room Temperature, Subject 1, day 14
  concentration: 233.0 µM
[5]; Room Temperature, Subject 1, day 21
  concentration: 197.5 µM
[5]; Room Temperature, Subject 1, day 60
  concentration: 182.0 µM
[5]; Room Temperature, Subject 1, day 126
  concentration: 170.0 µM
[5]; Room Temperature, Subject 2, day 0
  concentration: 440 ± 4 µM and 440.1 µM
[5]; Room Temperature, Subject 2, day 0, listed as 6-Oxo-PIP
  concentration: 440 ± 4 µM
[5]; Room Temperature, Subject 2, day 1
  concentration: 390.8 µM
[5]; Room Temperature, Subject 2, day 2
  concentration: 418.2 µM
[5]; Room Temperature, Subject 2, day 3
  concentration: 387.7 µM
[5]; Room Temperature, Subject 2, day 5
  concentration: 383.9 µM
[5]; Room Temperature, Subject 2, day 7
  concentration: 346.0 µM
[5]; Room Temperature, Subject 2, day 10
  concentration: 345.2 µM
[5]; Room Temperature, Subject 2, day 14
  concentration: 330.2 µM
[5]; Room Temperature, Subject 2, day 21
  concentration: 322.6 µM
[5]; Room Temperature, Subject 2, day 60
  concentration: 312.3 µM
[5]; Room Temperature, Subject 2, day 126
  concentration: 295.3 µM
[5]; −15° C., Subject 1, day 0
  concentration: 284.8 µM
[5]; −15° C., Subject 1, day 3
  concentration: 243.1 µM
[5]; −15° C., Subject 1, day 7
  concentration: 260.8 µM
[5]; −15° C., Subject 1, day 10
  concentration: 285.1 µM
[5]; −15° C., Subject 1, day 14
  concentration: 219.7 µM
[5]; −15° C., Subject 1, day 21
  concentration: 227.7 µM
[5]; −15° C., Subject 1, day 60
  concentration: 218.4 µM
[5]; −15° C., Subject 1, day 126
  concentration: 211.5 µM
[5]; −15° C., Subject 2, day 0
  concentration: 387.6 µM
[5]; −15° C., Subject 2, day 3
  concentration: 359.0 µM
[5]; −15° C., Subject 2, day 7
  concentration: 345.0 µM
[5]; −15° C., Subject 2, day 10
  concentration: 336.5 µM
[5]; −15° C., Subject 2, day 14
  concentration: 385.3 µM
[5]; −15° C., Subject 2, day 21
  concentration: 345.2 µM
[5]; −15° C., Subject 2, day 60
  concentration: 322.3 µM
[5]; −15° C., Subject 2, day 126
  concentration: 314.3 µM
[5]; −70° C., Subject 1, day 0
  concentration: 284.8 µM
[5]; −70° C., Subject 1, day 3
  concentration: 298.2 µM
[5]; −70° C., Subject 1, day 7
  concentration: 271.9 µM
[5]; −70° C., Subject 1, day 10
  concentration: 221.7 µM
[5]; −70° C., Subject 1, day 14
  concentration: 218.9 µM
[5]; −70° C., Subject 1, day 21
  concentration: 217.4 µM
[5]; −70° C., Subject 1, day 60
  concentration: 211.3 µM
[5]; −70° C., Subject 1, day 126
  concentration: 198.4 µM
[5]; −70° C., Subject 2, day 3
  concentration: 356.4 µM
[5]; −70° C., Subject 2, day 7
  concentration: 329.2 µM
[5]; −70° C., Subject 2, day 10
  concentration: 380.3 µM
[5]; −70° C., Subject 2, day 14
  concentration: 418.3 µM
[5]; −70° C., Subject 2, day 21
  concentration: 320.1 µM
[5]; −70° C., Subject 2, day 126
  concentration: 322.7 µM
[5]; urine samples stored at room temperature (22±2° C.)
  stability at room temperature: considerably more stable than Δ^1-P6C/P6CH; also recorded: measurable for up to four months
[5]; urine, regardless of storage temperature
  initial decrease within the first two weeks: 20-21%
[5]; urine, subject 1
  decrease at 126 days: 43%
[5]; urine, subject 2
  decrease at 126 days: 33%
